Data on 47 compounds can be found in patent publication US9856216B2, “Compounds as TNIK, IKKε and TBK1 inhibitors and pharmaceutical composition comprising same” (GREEN CROSS CORPORATION, priority 2015, dated 2018).

For one test, the target named is T1, TNIK (Homo sapiens, UniProt Q9UKE5).
T1 construct: purchased Promega V4158
T1 sequence (Q9UKE5 1-367 limits assumed): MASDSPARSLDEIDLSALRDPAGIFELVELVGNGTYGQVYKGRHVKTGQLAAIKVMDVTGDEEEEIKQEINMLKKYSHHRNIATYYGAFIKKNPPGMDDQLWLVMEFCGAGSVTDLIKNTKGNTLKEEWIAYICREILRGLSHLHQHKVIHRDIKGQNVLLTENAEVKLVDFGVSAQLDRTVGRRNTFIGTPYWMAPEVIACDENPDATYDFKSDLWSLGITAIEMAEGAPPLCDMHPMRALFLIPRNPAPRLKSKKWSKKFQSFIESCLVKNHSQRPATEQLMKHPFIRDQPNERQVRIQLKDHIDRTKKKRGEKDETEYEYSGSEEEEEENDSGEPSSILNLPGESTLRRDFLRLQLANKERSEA
The test can be described thus: ADP-Glo Kinase Assay, inhibition activity on TNIK. It counts as biochemical.
Details: not given
How it is done: The inhibition activities on TNIK, IKKε and TBK1 were measured by a luminometer, TNIK/IKKε/TBK1 Kinase Enzyme System (Promega, Ca# V4158; Invitrogen, PR8031B, Promega, Ca# V3991) and ADP-Glo Kinase Assay using ADP-Glo™ Kinase Analysis Kit (Promega, Ca# V9101) and a kinase reaction buffer [40 mM Tris(pH 7.5), 20 mM MgCl2, 0.1 mg/mL BSA] in accordance with the manufacturer's protocol.
(In general: In ADP-Glo the light output rises with the ADP produced.)
Consider `Nc1ccc(-c2ccc(F)cc2)c2c1C(=O)NC2` [Example 61, 7-Amino-4-(4-fluorophenyl)isoindolin-1-one], for which the “TNIK (μM)” value is given as “Insoluble”. In the case of `CN(C)c1cccc(C(=O)Nc2ccc(-c3ccccc3)c3c2C(=O)NC3)c1` [Example 95, 3-(Dimethylamino)-N-(3-oxo-7-phenylisoindolin-4-yl) benzamide], the “TNIK (μM)” value is “Insoluble”.

`COc1ccc(C(=O)Nc2ccc(-c3ccccc3)c3c2C(=O)NC3)cc1OC` [Example 102, 3,4-Dimethoxy-N-(3-oxo-7-phenylisoindolin-4-yl)benzamide]: the “TNIK (μM)” value was “Insoluble”.

With `O=C(Nc1ccc(-c2ccccc2)c2c1C(=O)NC2)c1ccc(Cl)c(Cl)c1` [Example 104, 3,4-Dichloro-N-(3-oxo-7-phenylisoindolin-4-yl)benzamide], the “TNIK (μM)” value is given as “Insoluble”.

The test is the same for the next values; noted with them: read-out: TNIK.
As to `CS(=O)(=O)c1ccccc1-c1ccc(NC(=O)c2ccccc2)c2c1CNC2=O` [Example 47, N-(7-(2-(methylsulfonyl)phenyl)-3-oxoisoindolin-4-yl) benzamide], the IC50 is more than 20 µM. As for `COc1c(F)cccc1-c1ccc(NC(=O)c2ccccc2)c2c1CNC2=O` [Example 48, N-(7-(3-fluoro-2-methoxyphenyl)-3-oxoisoindolin-4-yl) benzamide], the IC50 is 0.49 µM.

Take `COc1cc(Cl)ccc1-c1ccc(NC(=O)c2ccccc2)c2c1CNC2=O` [Example 49, N-(7-(4-chloro-2-methoxyphenyl)-3-oxoisoindolin-4-yl) benzamide]: the IC50 is more than 20 µM. Turning to `O=C(Nc1ccc(-c2cccc(Cl)c2F)c2c1C(=O)NC2)c1ccccc1` [Example 50, N-(7-(3-chloro-2-fluorophenyl)-3-oxoisoindolin-4-yl)benzamide], the IC50 is more than 20 µM. `O=C(Nc1ccc(-c2cncs2)c2c1C(=O)NC2)c1ccccc1` [Example 51, N-(3-oxo-7-(thiazol-5-yl)isoindolin-4-yl)benzamide]: the IC50 is 0.44 µM. Regarding `O=C(Nc1ccc(-c2cscn2)c2c1C(=O)NC2)c1ccccc1` [Example 52, N-(3-oxo-7-(thiazol-4-yl)isoindolin-4-yl)benzamide], the IC50 was 2.8 µM. Take `O=C(Nc1ccc(-c2nccs2)c2c1C(=O)NC2)c1ccccc1` [Example 53, N-(3-oxo-7-(thiazol-2-yl)isoindolin-4-yl)benzamide]: the IC50 was 2.34 µM. Regarding `O=C(Nc1ccc(-c2c[nH]cn2)c2c1C(=O)NC2)c1ccccc1` [Example 54, N-(7-(1H-imidazol-4-yl)-3-oxoisoindolin-4-yl)benzamide], the IC50 amounted to 3.82 µM. As to `O=C(Nc1ccc(-c2cn[nH]c2)c2c1C(=O)NC2)c1ccccc1` [Example 55, N-(3-oxo-7-(1H-pyrazol-4-yl)isoindolin-4-yl)benzamide], the IC50 came out at 4.62 µM. In the case of `Cn1cncc1-c1ccc(NC(=O)c2ccccc2)c2c1CNC2=O` [Example 56, N-(7-(1-methyl-1H-imidazol-5-yl)-3-oxoisoindolin-4-yl) benzamide], the IC50 stood at 2.21 µM. Same read-out and setting: next, `Cn1cc(-c2ccc(NC(=O)c3ccccc3)c3c2CNC3=O)cn1` [Example 57, N-(7-(1-methyl-1H-pyrazol-4-yl)-3-oxoisoindolin-4-yl) benzamide]: 2.17 µM.

As to `O=C(Nc1ccc(-c2ncn[nH]2)c2c1C(=O)NC2)c1ccccc1` [Example 58, N-(3-oxo-7-(1H-1,2,4-triazol-5-yl)isoindolin-4-yl)benzamide], the IC50 was 2.67 µM. Same read-out and setting: next, `Cn1ncnc1-c1ccc(NC(=O)c2ccccc2)c2c1CNC2=O` [Example 59, N-(7-(1-methyl-1H-1,2,4-triazol-5-yl)-3-oxoisoindolin-4-yl) benzamide]: more than 20 µM; `COc1ccc(-c2ccc(N)c3c2CNC3=O)cc1` [Example 60, 7-Amino-4-(4-methoxyphenyl)isoindolin-1-one]: more than 20 µM; `Nc1ccc(-c2ccc(Cl)cc2)c2c1C(=O)NC2` [Example 62, 7-Amino-4-(4-chlorophenyl)isoindolin-1-one]: more than 20 µM. On to `Cc1ccc(-c2ccc(N)c3c2CNC3=O)cc1` [Example 63, 7-Amino-4-(p-tolyl)isoindolin-1-one], for which the IC50 was more than 20 µM. Same read-out and setting: the same measure for `CC(=O)c1ccc(-c2ccc(N)c3c2CNC3=O)cc1` [Example 64, 4-(4-Acetylphenyl)-7-aminoisoindolin-1-one]: more than 20 µM.

Consider `Nc1ccc(-c2ccncc2)c2c1C(=O)NC2` [Example 65, 7-Amino-4-(pyridin-4-yl)isoindolin-1-one], for which the IC50 is more than 20 µM. On to `Cc1ccccc1C(=O)Nc1ccc(-c2ccccc2)c2c1C(=O)NC2` [Example 87, 2-Methyl-N-(3-oxo-7-phenylisoindolin-4-yl)benzamide], for which the IC50 amounted to 14.6 µM. As for `Cc1cccc(C(=O)Nc2ccc(-c3ccccc3)c3c2C(=O)NC3)c1` [Example 88, 3-Methyl-N-(3-oxo-7-phenylisoindolin-4-yl)benzamide], the IC50 turned out to be 2.8 µM. Consider `Cc1ccc(C(=O)Nc2ccc(-c3ccccc3)c3c2C(=O)NC3)cc1` [Example 89, 4-Methyl-N-(3-oxo-7-phenylisoindolin-4-yl)benzamide], for which the IC50 was 0.77 µM.

`O=C(Nc1ccc(-c2ccccc2)c2c1C(=O)NC2)c1cccc(Cl)c1` [Example 90, 3-Chloro-N-(3-oxo-7-phenylisoindolin-4-yl)benzamide]: the IC50 was more than 20 µM. In the case of `O=C(Nc1ccc(-c2ccccc2)c2c1C(=O)NC2)c1ccc(F)cc1F` [Example 91, 2,4-Difluoro-N-(3-oxo-7-phenylisoindolin-4-yl)benzamide], the IC50 was more than 20 µM. For the compound `O=C(Nc1ccc(-c2ccccc2)c2c1C(=O)NC2)c1ccc(F)c(F)c1` [Example 92, 3,4-Difluoro-N-(3-oxo-7-phenylisoindolin-4-yl)benzamide], the IC50 was more than 20 µM. The same measure, in the same setting: the same measure for `Cc1ccc(C(=O)Nc2ccc(-c3ccccc3)c3c2C(=O)NC3)cc1C` [Example 93, 3,4-Dimethyl-N-(3-oxo-7-phenylisoindolin-4-yl)benzamide]: 1.1 µM.

For `CN(C)c1ccccc1C(=O)Nc1ccc(-c2ccccc2)c2c1C(=O)NC2` [Example 94, 2-(Dimethylamino)-N-(3-oxo-7-phenylisoindolin-4-yl) benzamide], the IC50 is more than 20 µM. In the case of `CSc1ccccc1C(=O)Nc1ccc(-c2ccccc2)c2c1C(=O)NC2` [Example 96, 2-(Methylthio)-N-(3-oxo-7-phenylisoindolin-4-yl)benzamide], the IC50 turned out to be 7 µM. For the compound `CSc1cccc(C(=O)Nc2ccc(-c3ccccc3)c3c2C(=O)NC3)c1` [Example 97, 3-(Methylthio)-N-(3-oxo-7-phenylisoindolin-4-yl)benzamide], the IC50 was more than 20 µM. Consider `CS(=O)(=O)c1ccccc1C(=O)Nc1ccc(-c2ccccc2)c2c1C(=O)NC2` [Example 98, 2-(Methylsulfonyl)-N-(3-oxo-7-phenylisoindolin-4-yl) benzamide], for which the IC50 was 10.5 µM. With `CS(=O)(=O)c1cccc(C(=O)Nc2ccc(-c3ccccc3)c3c2C(=O)NC3)c1` [Example 99, 3-(Methylsulfonyl)-N-(3-oxo-7-phenylisoindolin-4-yl) benzamide], the IC50 is 4.3 µM.

As to `CS(=O)(=O)c1ccc(C(=O)Nc2ccc(-c3ccccc3)c3c2C(=O)NC3)cc1` [Example 100, 4-(Methylsulfonyl)-N-(3-oxo-7-phenylisoindolin-4-yl) benzamide], the IC50 is more than 20 µM. Still for that read-out and setting: the same measure for `COc1ccc(C(=O)Nc2ccc(-c3ccccc3)c3c2C(=O)NC3)c(OC)c1` [Example 101, 2,4-Dimethoxy-N-(3-oxo-7-phenylisoindolin-4-yl)benzamide]: more than 20 µM; for `O=C(Nc1ccc(-c2ccccc2)c2c1C(=O)NC2)c1ccc(Cl)cc1Cl` [Example 103, 2,4-Dichloro-N-(3-oxo-7-phenylisoindolin-4-yl)benzamide]: more than 20 µM; for `Cc1ccc(C(=O)Nc2ccc(-c3ccccc3)c3c2C(=O)NC3)c(C)c1` [Example 105, 2,4-Dimethyl-N-(3-oxo-7-phenylisoindolin-4-yl)benzamide]: more than 20 µM. Regarding `CC(=O)Nc1ccccc1C(=O)Nc1ccc(-c2ccccc2)c2c1C(=O)NC2` [Example 106, 2-Acetamido-N-(3-oxo-7-phenylisoindolin-4-yl)benzamide], the IC50 is more than 20 µM. As for `CC(=O)Nc1cccc(C(=O)Nc2ccc(-c3ccccc3)c3c2C(=O)NC3)c1` [Example 107, 3-Acetamido-N-(3-oxo-7-phenylisoindolin-4-yl)benzamide], the IC50 stood at 0.48 µM. The same measure, in the same setting: the same measure for `CNc1ccc(C(=O)Nc2ccc(-c3ccccc3)c3c2C(=O)NC3)cc1` [Example 108, 4-(Methylamino)-N-(3-oxo-7-phenylisoindolin-4-yl)benzamide]: 0.78 µM. For the compound `Cc1ccsc1C(=O)Nc1ccc(-c2ccccc2)c2c1C(=O)NC2` [Example 109, 3-Methyl-N-(3-oxo-7-phenylisoindolin-4-yl)thiophene-2-carboxamide], the IC50 is more than 20 µM. Consider `Cc1csc(C(=O)Nc2ccc(-c3ccccc3)c3c2C(=O)NC3)c1` [Example 110, 4-Methyl-N-(3-oxo-7-phenylisoindolin-4-yl)thiophene-2-carboxamide], for which the IC50 was more than 20 µM. In the case of `Cc1ccc(C(=O)Nc2ccc(-c3ccccc3)c3c2C(=O)NC3)s1` [Example 111, 5-Methyl-N-(3-oxo-7-phenylisoindolin-4-yl)thiophene-2-carboxamide], the IC50 worked out at 0.54 µM. `Cc1ccccc1-c1ccc(NC(=O)c2ccccc2)c2c1CNC2=O` [Example 112, N-(3-oxo-7-(o-tolyl)isoindolin-4-yl)benzamide]: the IC50 amounted to 2.2 µM. Still for that read-out and setting: next, `Cc1cccc(-c2ccc(NC(=O)c3ccccc3)c3c2CNC3=O)c1` [Example 113, N-(3-oxo-7-(m-tolyl)isoindolin-4-yl)benzamide]: 1.7 µM. Turning to `O=C(Nc1ccc(-c2ccccc2C(F)(F)F)c2c1C(=O)NC2)c1ccccc1` [Example 114, N-(3-oxo-7-(2-(trifluoromethyl)phenyl)isoindolin-4-yl) benzamide], the IC50 is more than 20 µM.
